In patent US6953786B2, “Compositions comprising plant-derived polyphenolic compounds and inhibitors of reactive oxygen species and methods of using thereof” (The Regents of the University of California, priority 2002, dated 2005):

Experiments:
[1] = test system: cytochrome c; test: Mitochondrial cytochrome c release (Western blot); type: cell-based, rat; settings: BSp73AS, 6 hours, 100 μM
Procedure: In order to determine the effects polyphenolic compounds have on mitochondrial cytochrome c release and apoptosis, the following assay was conducted. BSp73AS cells were cultured for 6 hours and Mia PACA-2 cells were cultured in the absence of serum or growth factors for 24 hours in the absence or presence of 100 μM of each rutin, trans-resveratrol, genistein, or quercetin. Cells were washed twice with ice-cold PBS, pH 7.2 and resuspended in extraction buffer, about 500 μl, comprising 20 mM HEPES-KOH (pH 7.0), 10 mM KCl, 1 mM […], 2 mM MgCl2, 1 mM EDTA, 1 mM DTT, 250 mM sucrose, 1 mM PMSF and protease inhibitors cocktail as provided above. The lysate was incubated for 30 minutes on ice and then homogenized using a glass dounce (80 strokes). Nuclei were removed by centrifugation at 1,000 g for 10 minutes at 4° C. Supernatant was additionally centrifuged for 1 hour at 100,000 g and the resulting supernatant (cytosolic fraction) and pellet (mitochondrial fraction) were collected separately, subjected to SDS-PAGE, and Western blotting using an antibody against cytochrome c. The experiment was repeated twice with similar results.

[2] = test system: BSp73AS cells; test: Mitochondrial membrane potential, DiOC6(3) retention; type: cell-based, rat; settings: 6 hours (FIG. 10A)
Procedure: (§1) In order to determine the effects polyphenolic compounds have on mitochondrial membrane potential, the retention of the dye 3,3′-dihexyloxacarbocyanine (DiOC6(3)) was measured as described by Pastorino J G, et al. (1998) J Biol Chem 273:7770-7775, which is herein incorporated by reference. BSp73AS cells were cultured for 6 hours in the absence (control) or presence of 0, 12, 24, 50, and 100 μM quercetin and trans-resveratrol. The cells were loaded with 1 μM DiOC6(3) during the last 30 minutes of treatment with a polyphenolic compound (or vehicle). The cells were then collected and pelleted by centrifugation. The supernatant was removed and the pellet was washed twice with PBS by alternate centrifugation and resuspension. The pellet was then lysed by addition of 1 ml of H2O and homogenized. The concentration of DiOC6(3) was read on a Perkin-Elmer LS-5 fluorescence spectrometer at 488 nm excitation and 500 nm emission. An aliquot of the cells was used for determining the DiOC6(3) fluorescence that was retained by the cells.

[3] = test system: cytochrome c; test: Mitochondrial cytochrome c release (Western blot); type: cell-based, human; settings: Mia PACA-2, 24 hours, 100 μM, no serum
Procedure: In order to determine the effects polyphenolic compounds have on mitochondrial cytochrome c release and apoptosis, the following assay was conducted. BSp73AS cells were cultured for 6 hours and Mia PACA-2 cells were cultured in the absence of serum or growth factors for 24 hours in the absence or presence of 100 μM of each rutin, trans-resveratrol, genistein, or quercetin. Cells were washed twice with ice-cold PBS, pH 7.2 and resuspended in extraction buffer, about 500 μl, comprising 20 mM HEPES-KOH (pH 7.0), 10 mM KCl, 1 mM NaEGTA, 2 mM MgCl2, 1 mM EDTA, 1 mM DTT, 250 mM sucrose, 1 mM PMSF and protease inhibitors cocktail as provided above. The lysate was incubated for 30 minutes on ice and then homogenized using a glass dounce (80 strokes). Nuclei were removed by centrifugation at 1,000 g for 10 minutes at 4° C. Supernatant was additionally centrifuged for 1 hour at 100,000 g and the resulting supernatant (cytosolic fraction) and pellet (mitochondrial fraction) were collected separately, subjected to SDS-PAGE, and Western blotting using an antibody against cytochrome c. The experiment was repeated twice with similar results.
In order to determine the role of the cancer cell's PTP in the effects of the polyphenolic compounds on mitochondrial function, caspase-3 activation and apoptosis, we performed the following experiments. Mia PACA-2 cells were cultured in the absence of serum or growth factors for 24 hours in the presence or absence of quercetin (100 μM), trans-resveratrol (100 μM), Z-VAD FMK (50 μM), cyclosporin A (5 μM) and/or aristolochic acid (50 μM). Cells were collected, washed with ice-cold PBS and resuspended in lysis buffer comprising 0.5% Nonidet P-40 or manufactured by the name IGEPAL CA-630, 0.5 mM EDTA, 150 mM NaCl and 50 mM Tris at pH 7.5. Cell lysates were placed for 30 minutes on a rotator at 4° C. and then centrifuged for 15 minutes at 15,000 g. Cytosolic protein extracts (supernatants) were collected, protein concentrations were determined and the extracts were aliquoted and stored at −80° C. Cytosolic extracts were subjected to SDS-PAGE and Western blot was performed with an antibody against cytochrome c. Blots were then stripped and re-probed with an antibody against tubulin to confirm equal protein loading. The experiment was repeated twice with similar results.
In order to determine the effect of a combination of trans-resveratrol and quercetin on cytochrome c release and caspase-3 activity, the following was conducted. Mia PACA-2 cells were cultured in the absence of serum or growth factors for 24 hours in the presence or absence of trans-resveratrol (25 μM), quercetin (25 μM), or the combination of trans-resveratrol (25 μM) and quercetin (25 μM). Cytosolic extracts were prepared and subject to SDS-PAGE followed by protein transfer. Immunoblot was performed with an antibody against tubulin to confirm equal protein loading.

[4] = test system: Mia PACA-2 cells; test: Mitochondrial membrane potential, DiOC6(3) retention; type: cell-based, human
Procedure: as §1
Mia PACA-2 cells were cultured for 72 hours in the presence of serum and trans-resveratrol or genistein in the presence or absence of DPI or Tiron. Mitochondrial membrane potential was measured as described above.

[5] = Mia PACA-2, 72 hours, in the presence of serum (FIG. 11)
[6] = Mia PACA-2, no serum (FIG. 10B)

SMILES	cytosolic and mitochondrial cytochrome c [1]	mitochondrial membrane potential [2]	cytosolic and mitochondrial cytochrome c [3]	mitochondrial membrane potential [4, 5]	mitochondrial membrane potential [4, 6]
O=c1c(-c2ccc(O)cc2)coc2cc(O)cc(O)c12 [genistein]	caused increases in cytosolic cytochrome c and decreases in mitochondrial cytochrome c	caused dissipation of the mitochondrial membrane potential	caused increases in cytosolic cytochrome c and decreases in mitochondrial cytochrome c	no effects on mitochondrial membrane potential	caused dissipation of the mitochondrial membrane potential
O=c1c(O)c(-c2ccc(O)c(O)c2)oc2cc(O)cc(O)c12 [quercetin]	caused increases in cytosolic cytochrome c and decreases in mitochondrial cytochrome c	caused dissipation of the mitochondrial membrane potential	caused increases in cytosolic cytochrome c and decreases in mitochondrial cytochrome c	–	caused dissipation of the mitochondrial membrane potential
Oc1ccc(/C=C/c2cc(O)cc(O)c2)cc1 [trans-resveratrol]	caused increases in cytosolic cytochrome c and decreases in mitochondrial cytochrome c	caused dissipation of the mitochondrial membrane potential	caused increases in cytosolic cytochrome c and decreases in mitochondrial cytochrome c	no effects on mitochondrial membrane potential	caused dissipation of the mitochondrial membrane potential
